{
  "source": "ChEMBL document CHEMBL6087471",
  "about": "“A Collection of Novel Antitumor Agents That Regulate Lipid Metabolism in the Tumor Microenvironment” (J Med Chem, 2025)",
  "key": {"MCF7": {"system": "MCF7", "test": "Antiproliferative activity against human MCF7 cells assessed as reduction in cell growth", "type": "functional, cell-based"}, "[1]": {"test": "Inhibition of rat CPT2"}, "Autotaxin": {"molecular_target": "Autotaxin (Homo sapiens, UniProt Q13822)", "description": "Inhibition of ATX (unknown origin)"}, "[2]": {"test": "Inhibition of ACC1 (unknown origin)", "parameters": "species or system Homo sapiens"}, "[3]": {"test": "Inhibition of CPT1 (unknown origin)", "parameters": "species or system Homo sapiens"}, "A549": {"system": "A549", "test": "Antiproliferative activity against human A549 cells", "type": "functional, cell-based"}, "SK-OV-3": {"system": "SK-OV-3", "test": "Antiproliferative activity against human SK-OV-3 cells", "type": "functional, cell-based"}, "PC-3": {"system": "PC-3", "test": "Antiproliferative activity against human PC-3 cells", "type": "functional, cell-based"}, "Bile acid receptor": {"molecular_target": "T1, Bile acid receptor (Homo sapiens, UniProt Q96RI1)", "T1 sequence (Q96RI1 whole entry)": "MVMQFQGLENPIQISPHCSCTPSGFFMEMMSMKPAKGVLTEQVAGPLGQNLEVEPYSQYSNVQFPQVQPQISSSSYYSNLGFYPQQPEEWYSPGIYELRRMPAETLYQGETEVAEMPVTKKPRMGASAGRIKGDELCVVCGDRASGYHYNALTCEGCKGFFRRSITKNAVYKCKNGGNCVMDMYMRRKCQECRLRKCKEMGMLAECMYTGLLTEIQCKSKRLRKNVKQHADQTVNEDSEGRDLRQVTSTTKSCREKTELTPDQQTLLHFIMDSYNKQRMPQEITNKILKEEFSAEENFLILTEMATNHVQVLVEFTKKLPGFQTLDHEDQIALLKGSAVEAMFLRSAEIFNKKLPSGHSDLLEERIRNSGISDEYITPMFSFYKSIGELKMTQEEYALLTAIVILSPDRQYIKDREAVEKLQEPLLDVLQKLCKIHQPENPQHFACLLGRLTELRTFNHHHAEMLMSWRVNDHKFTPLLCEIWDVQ", "test": "Agonist activity at FXR (unknown origin)"}, "Platelet glycoprotein 4": {"molecular_target": "Platelet glycoprotein 4 (Homo sapiens, UniProt P16671)", "sequence (P16671 whole entry)": "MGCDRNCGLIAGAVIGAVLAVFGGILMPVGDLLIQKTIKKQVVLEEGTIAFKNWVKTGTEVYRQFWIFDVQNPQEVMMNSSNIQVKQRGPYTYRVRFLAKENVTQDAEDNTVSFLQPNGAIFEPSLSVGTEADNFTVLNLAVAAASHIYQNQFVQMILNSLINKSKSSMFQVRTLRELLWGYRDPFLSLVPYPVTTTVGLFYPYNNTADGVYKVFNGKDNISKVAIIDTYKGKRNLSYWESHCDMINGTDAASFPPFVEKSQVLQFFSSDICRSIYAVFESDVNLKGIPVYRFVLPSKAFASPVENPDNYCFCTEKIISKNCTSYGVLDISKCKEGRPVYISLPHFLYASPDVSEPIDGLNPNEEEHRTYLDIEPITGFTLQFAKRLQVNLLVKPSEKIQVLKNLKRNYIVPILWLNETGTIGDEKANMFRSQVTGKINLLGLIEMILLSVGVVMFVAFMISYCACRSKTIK", "test": "Inhibition of N-terminal Flag-tagged human CD36"}, "[4]": {"molecular_target": "T2, Diacylglycerol O-acyltransferase 2 (Homo sapiens, UniProt Q96PD7)", "T2 sequence (Q96PD7 whole entry)": "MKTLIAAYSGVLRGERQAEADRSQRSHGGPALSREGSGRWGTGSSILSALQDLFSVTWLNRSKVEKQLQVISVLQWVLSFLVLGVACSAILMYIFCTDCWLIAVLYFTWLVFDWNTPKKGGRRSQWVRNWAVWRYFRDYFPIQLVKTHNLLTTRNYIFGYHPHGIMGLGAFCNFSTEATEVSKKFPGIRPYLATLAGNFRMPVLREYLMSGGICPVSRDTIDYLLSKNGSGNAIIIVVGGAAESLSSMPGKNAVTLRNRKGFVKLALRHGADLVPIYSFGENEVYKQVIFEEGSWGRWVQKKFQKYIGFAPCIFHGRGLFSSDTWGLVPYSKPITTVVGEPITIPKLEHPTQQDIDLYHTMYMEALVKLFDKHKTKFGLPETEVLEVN", "test": "Inhibition of DGAT2 (unknown origin)"}, "[5]": {"test": "Binding affinity to rat liver mitochondria CPT1 assessed as inhibition constant measured for 6 mins by Liquid scintillation counting method"}},
  "data": [
    {"smiles": "CC(C)N(C(=O)n1nnn(-c2c(F)cccc2F)c1=O)c1ccc(C(=O)O)cc1Oc1ccccc1", "values": [
      {"measurement": "IC50", "setting": "MCF7", "value": 0.019, "unit": "µM"}
    ]},
    {"smiles": "CCCCCCCCCCCCCCNC(=O)N[C@H](CC(=O)[O-])C[N+](C)(C)C", "values": [
      {"measurement": "IC50", "setting": "[1]", "value": 0.24, "unit": "µM"}
    ]},
    {"smiles": "C[C@H](CCC(=O)O)[C@H]1CC[C@H]2[C@@H]3[C@@H](O)C[C@@H]4C[C@H](O)CC[C@]4(C)[C@H]3CC[C@]12C", "note": "[URSODIOL]", "values": [
      {"measurement": "IC50", "setting": "Autotaxin", "value": 2.8, "unit": "µM"}
    ]},
    {"smiles": "CC(=O)N1CCC(C(=O)N2CCC(N3CCN(C(=O)c4cc(-c5ccc(C)cc5)nc(-c5ccc(C)cc5)c4)CC3)CC2)CC1", "values": [
      {"measurement": "IC50", "setting": "[2]", "value": 0.076, "unit": "µM"}
    ]},
    {"smiles": "COc1ccc(-c2ccccc2)cc1NS(=O)(=O)c1cc(Cl)cc(Cl)c1O", "values": [
      {"measurement": "IC50", "setting": "[3]", "value": 0.13, "unit": "µM"}
    ]},
    {"smiles": "CCOC(=O)c1sc2c(c1C)c(=O)n(CCO)c(=O)n2CCc1ccccc1", "values": [
      {"measurement": "IC50", "setting": "[2]", "value": 0.0039, "unit": "µM"}
    ]},
    {"smiles": "COC(=O)c1cc(Cl)c(O)c(S(=O)(=O)Nc2cc(-c3ccccc3)c(F)cc2F)c1", "values": [
      {"measurement": "IC50", "setting": "[3]", "value": 0.044, "unit": "µM"}
    ]},
    {"smiles": "CCc1nc2c(C)cc(-c3ccc(CN(CCO)CCO)cc3)cn2c1NC(=O)NCc1ccc(Cl)cc1", "values": [
      {"measurement": "IC50", "setting": "Autotaxin", "value": 0.00398, "unit": "µM"}
    ]},
    {"smiles": "O=C(c1c2ccccc2cc2ccccc12)N1CCN(C2CCN(C(=O)N3CCOCC3)CC2)CC1", "values": [
      {"measurement": "IC50", "setting": "[2]", "value": 0.239, "unit": "µM"}
    ]},
    {"smiles": "O=C(c1c2ccccc2cc2ccccc12)N1CCC(N2CCC[C@@H](C(=O)N3CCOCC3)C2)CC1", "values": [
      {"measurement": "IC50", "setting": "[2]", "value": 0.116, "unit": "µM"}
    ]},
    {"smiles": "COc1cc(C(=O)N2CCC3(CC2)CC(=O)c2cc(-c4cncc(C(=O)O)c4)ccc2O3)cc2c1c(C)cn2C1CC1", "values": [
      {"measurement": "IC50", "setting": "[2]", "value": 0.003, "unit": "µM"}
    ]},
    {"smiles": "C=C1C(=O)O[C@H](CCCCCCCC)[C@H]1C(=O)O", "values": [
      {"measurement": "IC50", "setting": "[2]", "value": 0.46, "unit": "µM"}
    ]},
    {"smiles": "CC(C)(CCCCCC(O)CCCCCC(C)(C)C(=O)O)C(=O)O", "note": "[BEMPEDOIC ACID]", "values": [
      {"measurement": "IC50", "setting": "A549", "value": 24, "unit": "µM"},
      {"measurement": "IC50", "setting": "SK-OV-3", "value": 53, "unit": "µM"},
      {"measurement": "IC50", "setting": "PC-3", "value": 26, "unit": "µM"}
    ]},
    {"smiles": "Cc1cc(-c2nc3ccc(C(=O)O)cc3n2C)ccc1OCc1c(-c2c(Cl)cccc2Cl)noc1C(C)C", "values": [
      {"measurement": "EC50", "setting": "Bile acid receptor", "value": 0.0134, "unit": "µM"}
    ]},
    {"smiles": "Cc1cc(C)c(-c2[nH]nc(C)c2C)cc1C(=O)N1CC(c2ccc(C#N)cc2)C1", "values": [
      {"measurement": "IC50", "setting": "[2]", "value": 0.02, "unit": "µM"}
    ]},
    {"smiles": "CCCCCCCC/C=C\\CCCCCCCC(=O)ON1C(=O)CC(S(=O)(=O)O)C1=O", "note": "(stereo unspecified)", "values": [
      {"measurement": "IC50", "setting": "Platelet glycoprotein 4", "value": 4, "unit": "µM"}
    ]},
    {"smiles": "COCc1nc(C(F)(F)F)[nH]c1-c1cc(C(=O)N2CC(c3ccc(C#N)cc3)C2)c(C)cc1C", "values": [
      {"measurement": "IC50", "setting": "[2]", "value": 0.04, "unit": "µM"}
    ]},
    {"smiles": "O=C(NC1(C(=O)N[C@@H]2CC(=O)c3ccccc3N(Cc3cc(C(F)(F)F)cc(C(F)(F)F)c3)C2=O)CC1)c1ccc(F)cc1", "values": [
      {"measurement": "IC50", "setting": "[4]", "value": "> 0.0755", "unit": "µM"}
    ]},
    {"smiles": "COc1ccc(CN2CCN(CCCSc3cc(C(C)(C)C)c(O)c(C(C)(C)C)c3)CC2)c(OC)c1OC", "values": [
      {"measurement": "IC50", "setting": "[3]", "value": 50.8, "unit": "µM"}
    ]},
    {"smiles": "CCCCCCCCCCC[C@@H](C[C@@H]1OC(=O)[C@H]1CCCCCC)OC(=O)[C@H](CC(C)C)NC=O", "note": "[ORLISTAT]", "values": [
      {"measurement": "IC50", "setting": "MCF7", "value": 0.25, "unit": "µM"}
    ]},
    {"smiles": "COc1ccccc1[C@H](Cn1c(=O)n(C(C)(C)C(=O)O)c(=O)c2c(C)c(-c3ncco3)sc21)OC1CCOCC1", "note": "[FIRSOCOSTAT]", "values": [
      {"measurement": "IC50", "setting": "[2]", "value": 0.0021, "unit": "µM"}
    ]},
    {"smiles": "O=C1Nc2ccccc2-c2cc(c(F)cc2F)NS(=O)(=O)c2cc1cc(Cl)c2O", "values": [
      {"measurement": "IC50", "setting": "[3]", "value": 0.0697, "unit": "µM"}
    ]},
    {"smiles": "CCCCCCCCCCCCCC(=O)Nc1ccc(CP(=O)(O)O)cc1", "values": [
      {"measurement": "IC50", "setting": "Autotaxin", "value": 0.0056, "unit": "µM"}
    ]},
    {"smiles": "Cc1sc2ncnc(NC3CCN(Cc4ccccc4)C3)c2c1C", "note": "(stereo unspecified)", "values": [
      {"measurement": "IC50", "setting": "MCF7", "value": 0.0003, "unit": "µM"}
    ]},
    {"smiles": "CC(C)(C)OC(=O)NC1(C(=O)N[C@@H]2CC(=O)c3ccccc3N(Cc3cc(C(F)(F)F)cc(C(F)(F)F)c3)C2=O)CC1", "values": [
      {"measurement": "IC50", "setting": "[4]", "value": "> 0.0755", "unit": "µM"}
    ]},
    {"smiles": "Cc1nc(-c2cc(C(=O)N3CCC(c4ccc(C#N)cc4)CC3)c(C)cc2C2CCC2)n[nH]1", "values": [
      {"measurement": "IC50", "setting": "[2]", "value": 0.04, "unit": "µM"}
    ]},
    {"smiles": "CCCCCCOc1cccc(OCCCCNC(=O)N[C@@H](CC(=O)O)CN(C)C)c1", "values": [
      {"measurement": "IC50", "setting": "[3]", "value": 0.044, "unit": "µM"}
    ]},
    {"smiles": "COc1ccc(CN2CCNCC2)c(OC)c1OC", "note": "[TRIMETAZIDINE]", "values": [
      {"measurement": "IC50", "setting": "[3]", "value": 759, "unit": "µM"}
    ]},
    {"smiles": "CCCCCCCCCCCCCCC[C@@]1(O)C[N+](C)(C)C[C@@H](CC(=O)[O-])O1", "values": [
      {"measurement": "Ki", "setting": "[5]", "value": 4.2, "unit": "µM"}
    ]}
  ]
}
